How the values were obtained:
[1] = molecular target: T1, Leukotriene A-4 hydrolase (Homo sapiens, UniProt P09960); assay: Inhibition of N-terminal (His)6 and Xpress-tagged LTA4H (unknown origin) expressed in Escherichia coli BL21(DE3) cells assessed as reduction in aminopeptidase activity by measuring p-nitroanilide release using L-Alanine-p-nitroanilide incubated for 10 mins by UV plate reader based assay
T1 sequence (P09960 whole entry): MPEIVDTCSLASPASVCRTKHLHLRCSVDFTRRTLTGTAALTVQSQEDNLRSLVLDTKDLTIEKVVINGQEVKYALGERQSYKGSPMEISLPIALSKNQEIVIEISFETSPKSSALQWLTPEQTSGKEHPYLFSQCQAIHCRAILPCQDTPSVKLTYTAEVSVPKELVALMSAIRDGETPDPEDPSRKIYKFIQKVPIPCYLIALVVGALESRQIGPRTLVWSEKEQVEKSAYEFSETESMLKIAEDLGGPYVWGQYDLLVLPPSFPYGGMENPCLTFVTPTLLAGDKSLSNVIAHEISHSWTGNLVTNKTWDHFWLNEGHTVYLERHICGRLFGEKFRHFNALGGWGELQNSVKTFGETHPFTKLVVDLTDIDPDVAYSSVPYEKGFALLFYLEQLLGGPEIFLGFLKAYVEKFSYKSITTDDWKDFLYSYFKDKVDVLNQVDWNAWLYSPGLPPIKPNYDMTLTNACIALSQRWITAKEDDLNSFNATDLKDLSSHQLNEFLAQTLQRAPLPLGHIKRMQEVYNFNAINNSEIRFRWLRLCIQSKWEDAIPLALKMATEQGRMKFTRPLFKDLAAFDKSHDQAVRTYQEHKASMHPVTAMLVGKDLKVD

[2] = molecular target: T1, Leukotriene A-4 hydrolase; assay: Activation of N-terminal (His)6 and Xpress-tagged LTA4H (unknown origin) expressed in Escherichia coli BL21(DE3) cells assessed as increase in aminopeptidase activity by measuring p-nitroanilide release using L-Alanine-p-nitroanilide incubated for 10 mins by UV plate reader based assay
[3] = molecular target: T2, Leukotriene A-4 hydrolase (Homo sapiens) (UniProt P09960); assay: (§1) Activation of N-terminal (His)6 and Xpress-tagged LTA4H (unknown origin) expressed in Escherichia coli BL21(DE3) cells assessed as increase in aminopeptidase activity by measuring reciprocal allosteric coupling constant for hyperbolic mixed predominantly catalytic activation using L-Alanine-p-nitroanilide incubated for 10 mins by p-nitroanilide release detection based UV plate reader based assay
T2 sequence (whole entry): T1 sequence (P09960 whole entry)

[4] = molecular target: T2, Leukotriene A-4 hydrolase (Homo sapiens); assay: as §1, with “factor by which activator affects catalytic” for “reciprocal allosteric coupling”
[5] = molecular target: T2, Leukotriene A-4 hydrolase (Homo sapiens); assay: as §1, with “dissociation” for “reciprocal allosteric coupling”, “constant (KX)” for “constant”

## Nc1nc(-c2ccc(Cc3ccccc3C(F)(F)F)cc2)cs1
[1]
  IC50: 8.35 µM

## COc1cccc(Cc2ccc(-c3csc(N)n3)cc2)c1
[2]
  AC50: 5.92 µM

## Nc1nc(-c2ccc(Cc3cccc(C(F)(F)F)c3)cc2)cs1
[2]
  AC50: 69 µM

## Nc1nc(-c2ccc(Cc3ccc(C(F)(F)F)cc3)cc2)cs1
[2]
  AC50: 1.39 µM
[3]
  K: 9.51
[4]
  fold change (FC): 21.4
[5]
  K: 9.6 µM

## COc1ccc(Cc2ccccc2)cc1
[2]
  AC50: 4.83 µM
[3]
  K: 2.66
[4]
  fold change (FC): 23.6
[5]
  K: 0.18 µM

## Nc1nc(-c2ccc(Cc3ccccc3)cc2)cs1
[2]
  AC50: 0.24 µM
[3]
  K: 0.82
[4]
  fold change (FC): 25.4
[5]
  K: 1.35 µM
